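Compound exposure: 48 hours, 5 concentrations, 96-well plates. GI50 marks 50% less growth.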 Calls of active or inactive are those of the source. No stated cut-off is given here; in the data, active = GI50 up to about 1.1 µM and inactive = higher.
Legend:
Assay in all cases: NCI anticancer screen, dose series, 48 h
BT-549 = test system: BT-549
CAKI-1 = test system: CAKI-1
HT-29 = test system: HT-29
Hs-578T = test system: Hs-578T
K562 = test system: K562
LOX IMVI = test system: LOX IMVI
M14 = test system: M14
MCF7 = test system: MCF7
MOLT-4 = test system: MOLT-4
NCI-H23 = test system: NCI-H23
NCI-H460 = test system: NCI-H460
OVCAR-3 = test system: OVCAR-3
PC-3 = test system: PC-3
RPMI-8226 = test system: RPMI-8226
SF-295 = test system: SF-295
SK-MEL-28 = test system: SK-MEL-28
SK-MEL-5 = test system: SK-MEL-5
SNB-19 = test system: SNB-19
T47D = test system: T47D

Measured: GI50

COC/C=C\[C@@]1(O)CCCC[C@@H]1CC(OC)OC
inactive: BT-549 64 µM | CAKI-1 > 100 µM | HT-29 > 59.6 µM | Hs-578T 37.2 µM | K562 11.9 µM | LOX IMVI 7.03 µM | M14 46.7 µM | MCF7 2.75 µM | MOLT-4 9.46 µM | NCI-H23 39.6 µM | NCI-H460 33.3 µM | OVCAR-3 54.5 µM | PC-3 49.5 µM | RPMI-8226 22.8 µM | SF-295 43.4 µM | SK-MEL-28 37.4 µM | SK-MEL-5 > 94.2 µM | SNB-19 43.6 µM | T47D 34.1 µM

O=C(NNC(=S)Nc1cccc(Cl)c1)c1cc(-c2ccccc2)nc2ccccc12
inactive: BT-549 19.4 µM | CAKI-1 19.3 µM | HT-29 20.4 µM | Hs-578T 19.6 µM | K562 20.7 µM | M14 17.5 µM | MCF7 10 µM | MOLT-4 28 µM | NCI-H23 13.8 µM | NCI-H460 18.6 µM | OVCAR-3 15.1 µM | PC-3 15.1 µM | RPMI-8226 6.68 µM | SF-295 11.7 µM | SK-MEL-28 12.4 µM | SK-MEL-5 16.9 µM | SNB-19 17 µM | T47D 14.9 µM

CC(=O)N1C(Nc2ccccc2)CCN1c1ccccc1 (stereo unspecified)
inactive: BT-549 > 10 µM | CAKI-1 8.73 µM | HT-29 5.77 µM | Hs-578T > 10 µM | K562 4.04 µM | LOX IMVI > 10 µM | M14 > 10 µM | MCF7 > 10 µM | MOLT-4 9.77 µM | NCI-H23 > 10 µM | NCI-H460 > 10 µM | OVCAR-3 > 10 µM | PC-3 4.01 µM | RPMI-8226 > 10 µM | SF-295 3.96 µM | SK-MEL-28 > 10 µM | SK-MEL-5 > 10 µM | SNB-19 > 10 µM | T47D > 10 µM

COC(=O)/C(=N\Nc1nnc(C)n1N)C(C#N)c1ccccc1 (stereo unspecified)
inactive: BT-549 > 100 µM | CAKI-1 > 100 µM | HT-29 > 63.1 µM | Hs-578T > 100 µM | K562 > 100 µM | LOX IMVI > 64.9 µM | M14 > 74.6 µM | MOLT-4 > 100 µM | NCI-H23 24.1 µM | NCI-H460 > 100 µM | OVCAR-3 > 100 µM | PC-3 > 100 µM | RPMI-8226 99.5 µM | SF-295 > 100 µM | SK-MEL-28 > 100 µM | SK-MEL-5 92.3 µM | SNB-19 > 100 µM | T47D > 100 µM

Cc1cc(S(=O)(=O)Nc2nc3cc(-c4ccc(Cl)cc4)sc3c(=O)n2N)c(S)cc1Cl
inactive: BT-549 > 100 µM | CAKI-1 > 100 µM | HT-29 54.5 µM | Hs-578T > 100 µM | K562 32.7 µM | LOX IMVI 45.4 µM | M14 > 100 µM | MCF7 44.7 µM | MOLT-4 21.3 µM | NCI-H23 59.8 µM | NCI-H460 36.6 µM | OVCAR-3 > 100 µM | PC-3 63.2 µM | RPMI-8226 > 100 µM | SF-295 33.3 µM | SK-MEL-28 36.5 µM | SK-MEL-5 51.1 µM | SNB-19 80.2 µM | T47D 31.3 µM

CC1(N2CCOCC2)CC2C(=[N+]1[O-])CCC/C2=N/O (stereo unspecified)
inactive: BT-549 > 100 µM | CAKI-1 > 100 µM | HT-29 > 100 µM | Hs-578T > 100 µM | K562 > 100 µM | LOX IMVI > 100 µM | M14 > 100 µM | MCF7 > 100 µM | MOLT-4 > 100 µM | NCI-H23 > 100 µM | NCI-H460 > 100 µM | OVCAR-3 > 100 µM | PC-3 > 100 µM | SF-295 > 100 µM | SK-MEL-28 > 100 µM | SK-MEL-5 > 100 µM | SNB-19 > 100 µM | T47D > 100 µM
